Measurements reported in ChEMBL document CHEMBL1201862, “PubChem BioAssay data set” (2004).
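Interpolation was linear, between the two tested concentrations surrounding the appropriate level; five concentrations were tested over 48 hours in 96-well plates. GI50: concentration for 50% inhibition of growth.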 Activity calls are given as the source filed them. Cut-off read from the data, not from the text of the source: active = GI50 up to about 1.1 µM and inactive = higher.

Tests used:
Assay in all cases: NCI-60 cell line screen, 48 h
SNB-75 = system: SNB-75
OVCAR-3 = system: OVCAR-3
HCC 2998 = system: HCC 2998
HL-60 = system: HL-60
NCI-H226 = system: NCI-H226
PC-3 = system: PC-3
SNB-19 = system: SNB-19
UACC-62 = system: UACC-62
OVCAR-5 = system: OVCAR-5
MDA-N = system: MDA-N
CCRF-CEM = system: CCRF-CEM
SF-539 = system: SF-539
SK-MEL-28 = system: SK-MEL-28
ACHN = system: ACHN
KM12 = system: KM12
SK-MEL-5 = system: SK-MEL-5
MDA-MB-435 = system: MDA-MB-435
IGROV-1 = system: IGROV-1
786-0 = system: 786-0
NCI-H460 = system: NCI-H460

Structure (SMILES)	GI50 (SNB-75)	GI50 (OVCAR-3)	GI50 (HCC 2998)	GI50 (HL-60)	GI50 (NCI-H226)	GI50 (PC-3)	GI50 (SNB-19)	GI50 (UACC-62)	GI50 (OVCAR-5)	GI50 (MDA-N)	GI50 (CCRF-CEM)	GI50 (SF-539)	GI50 (SK-MEL-28)	GI50 (ACHN)	GI50 (KM12)	GI50 (SK-MEL-5)	GI50 (MDA-MB-435)	GI50 (IGROV-1)	GI50 (786-0)	GI50 (NCI-H460)
CCOC(=O)Cc1nn2c(=O)cc(C)nc2s1	> 100 µM (inactive)	> 100 µM (inactive)	> 100 µM (inactive)	> 100 µM (inactive)	> 100 µM (inactive)	> 100 µM (inactive)	> 100 µM (inactive)	> 100 µM (inactive)	> 100 µM (inactive)	> 100 µM (inactive)	> 100 µM (inactive)	55.2 µM (inactive)	> 100 µM (inactive)	> 100 µM (inactive)	> 100 µM (inactive)	> 100 µM (inactive)	> 100 µM (inactive)	> 100 µM (inactive)	> 100 µM (inactive)	> 100 µM (inactive)
COC(=O)c1ccccc1C1CN=NC12Cc1ccc3c(c1C2=O)CCC3 (configuration not stated)	58.6 µM (inactive)	6.92 µM (inactive)	> 100 µM (inactive)	19.6 µM (inactive)	55.1 µM (inactive)	49.3 µM (inactive)	65 µM (inactive)	> 100 µM (inactive)	> 100 µM (inactive)	> 100 µM (inactive)	19.3 µM (inactive)	> 100 µM (inactive)	> 100 µM (inactive)	50.4 µM (inactive)	42.1 µM (inactive)	17.4 µM (inactive)	> 100 µM (inactive)	> 100 µM (inactive)	43.4 µM (inactive)	70 µM (inactive)
Cc1nc(C)c(N2CCN(C(=O)NC(CCC(=O)O)C(=O)O)CC2)c(O)n1 (configuration not stated)	< 0.01 µM (active)	> 100 µM (inactive)	> 100 µM (inactive)	> 100 µM (inactive)	> 100 µM (inactive)	> 100 µM (inactive)	> 100 µM (inactive)	> 100 µM (inactive)	> 100 µM (inactive)	> 100 µM (inactive)	> 100 µM (inactive)	> 100 µM (inactive)	> 100 µM (inactive)	> 100 µM (inactive)	> 100 µM (inactive)	–	> 100 µM (inactive)	> 100 µM (inactive)	> 100 µM (inactive)	> 100 µM (inactive)
CCOC(=O)c1cc2c3c(cc(OC)c2[nH]1)N(C(=O)OCC)CC3	> 100 µM (inactive)	> 100 µM (inactive)	> 100 µM (inactive)	> 100 µM (inactive)	> 100 µM (inactive)	> 100 µM (inactive)	> 100 µM (inactive)	> 100 µM (inactive)	> 100 µM (inactive)	> 100 µM (inactive)	> 100 µM (inactive)	> 100 µM (inactive)	> 100 µM (inactive)	–	> 100 µM (inactive)	> 100 µM (inactive)	> 100 µM (inactive)	> 100 µM (inactive)	> 100 µM (inactive)	> 100 µM (inactive)
CC1=NN(c2nc(N)nc(C(C#N)C(=O)c3cc4c(cc3Cl)Sc3nccn3S4(=O)=O)n2)C(C)(C)C1 (configuration not stated)	16.1 µM (inactive)	13.6 µM (inactive)	8.41 µM (inactive)	10.3 µM (inactive)	16.5 µM (inactive)	29.2 µM (inactive)	55.6 µM (inactive)	18.8 µM (inactive)	> 100 µM (inactive)	21.9 µM (inactive)	6.84 µM (inactive)	37.7 µM (inactive)	20 µM (inactive)	13.4 µM (inactive)	20 µM (inactive)	14 µM (inactive)	22.8 µM (inactive)	20.8 µM (inactive)	13.5 µM (inactive)	8.83 µM (inactive)
Nc1ccc2c3c1cccc3c(=O)n1c3ccc(Cc4ccc5c(c4)nc4c6ccc(N)c7cccc(c(=O)n54)c76)cc3nc21	30.8 µM (inactive)	> 100 µM (inactive)	> 100 µM (inactive)	> 100 µM (inactive)	> 100 µM (inactive)	> 100 µM (inactive)	> 100 µM (inactive)	> 100 µM (inactive)	> 100 µM (inactive)	> 100 µM (inactive)	> 100 µM (inactive)	> 100 µM (inactive)	> 100 µM (inactive)	> 100 µM (inactive)	> 100 µM (inactive)	> 100 µM (inactive)	> 100 µM (inactive)	> 100 µM (inactive)	> 100 µM (inactive)	> 100 µM (inactive)
COc1cc(S(=O)(=O)Nc2ccc(-c3csc(N4C(=O)CSC4c4ccccc4)n3)cc2)ccc1Cl (configuration not stated)	67.3 µM (inactive)	> 100 µM (inactive)	20.4 µM (inactive)	20.8 µM (inactive)	94.4 µM (inactive)	41.3 µM (inactive)	13.7 µM (inactive)	13.2 µM (inactive)	> 100 µM (inactive)	39.9 µM (inactive)	34.2 µM (inactive)	80.7 µM (inactive)	22.9 µM (inactive)	15.2 µM (inactive)	30.5 µM (inactive)	92.9 µM (inactive)	43.1 µM (inactive)	51.4 µM (inactive)	76.2 µM (inactive)	31.4 µM (inactive)
[N-]=[N+]=Nc1ccc2c(c1)Sc1ccccc1N2CCCCN1CCN(Cc2ccc(C(=O)c3ccccc3)cc2)CC1	4.32 µM (inactive)	3.72 µM (inactive)	2.13 µM (inactive)	2.47 µM (inactive)	20.4 µM (inactive)	3.35 µM (inactive)	> 100 µM (inactive)	2.43 µM (inactive)	4.16 µM (inactive)	9.51 µM (inactive)	5.97 µM (inactive)	3.35 µM (inactive)	1.96 µM (inactive)	6.46 µM (inactive)	3.01 µM (inactive)	2.13 µM (inactive)	4.92 µM (inactive)	> 22.3 µM (inactive)	5.24 µM (inactive)	2.85 µM (inactive)
CC(C)OP(=O)(OC(C)C)C(C(C)C)N(C)/C(F)=N/C(F)(F)F (configuration not stated)	> 100 µM (inactive)	> 100 µM (inactive)	> 100 µM (inactive)	31 µM (inactive)	> 100 µM (inactive)	> 100 µM (inactive)	> 100 µM (inactive)	> 100 µM (inactive)	> 100 µM (inactive)	> 100 µM (inactive)	> 100 µM (inactive)	> 100 µM (inactive)	> 100 µM (inactive)	> 100 µM (inactive)	> 100 µM (inactive)	> 100 µM (inactive)	> 100 µM (inactive)	> 100 µM (inactive)	> 100 µM (inactive)	> 100 µM (inactive)
C/C(=N/NC(=S)N1CCN(C(=S)N/N=C(/C)c2ccccn2)CC1)c1ccccn1	15.1 µM (inactive)	3.01 µM (inactive)	22.5 µM (inactive)	0.352 µM (active)	6.89 µM (inactive)	14.3 µM (inactive)	11.7 µM (inactive)	6.71 µM (inactive)	> 66.8 µM (inactive)	> 77.8 µM (inactive)	0.682 µM (active)	6.4 µM (inactive)	14.3 µM (inactive)	2.52 µM (inactive)	16.5 µM (inactive)	6.97 µM (inactive)	28 µM (inactive)	17.7 µM (inactive)	6.87 µM (inactive)	2.99 µM (inactive)
CC(=O)OCC1OC(n2c(C#N)cc(=O)[nH]c2=O)CC1OC(C)=O (configuration not stated)	> 100 µM (inactive)	> 100 µM (inactive)	> 10 µM (inactive)	> 100 µM (inactive)	> 100 µM (inactive)	> 100 µM (inactive)	> 100 µM (inactive)	> 100 µM (inactive)	> 100 µM (inactive)	> 100 µM (inactive)	> 100 µM (inactive)	> 100 µM (inactive)	> 100 µM (inactive)	> 100 µM (inactive)	> 100 µM (inactive)	> 100 µM (inactive)	> 100 µM (inactive)	> 100 µM (inactive)	> 100 µM (inactive)	> 100 µM (inactive)
CN(C)/C=N/c1ccc2nonc2c1	> 100 µM (inactive)	> 100 µM (inactive)	> 100 µM (inactive)	> 100 µM (inactive)	> 100 µM (inactive)	> 100 µM (inactive)	> 100 µM (inactive)	> 100 µM (inactive)	> 100 µM (inactive)	> 100 µM (inactive)	> 100 µM (inactive)	> 100 µM (inactive)	> 100 µM (inactive)	> 100 µM (inactive)	> 100 µM (inactive)	> 100 µM (inactive)	> 100 µM (inactive)	> 100 µM (inactive)	> 100 µM (inactive)	> 100 µM (inactive)
Cc1ccc(/N=C2\OP(=O)(Nc3ccc(C)cc3)Oc3ccccc32)cc1 (configuration not stated)	36.4 µM (inactive)	> 100 µM (inactive)	> 100 µM (inactive)	> 100 µM (inactive)	> 100 µM (inactive)	> 100 µM (inactive)	> 100 µM (inactive)	> 100 µM (inactive)	> 100 µM (inactive)	> 100 µM (inactive)	> 100 µM (inactive)	> 100 µM (inactive)	> 100 µM (inactive)	> 100 µM (inactive)	> 100 µM (inactive)	73.1 µM (inactive)	> 100 µM (inactive)	> 100 µM (inactive)	> 100 µM (inactive)	> 100 µM (inactive)
CC1OC2=N[C@@H]1C(=O)N[C@@H](C(C)C)C1=N[C@H](C(=O)N[C@@H](C(C)C)C3=N[C@H](C(=O)N[C@@H](C(C)C)C4=N[C@H](C(=O)N[C@H]2C(C)C)C(C)O4)C(C)O3)C(C)O1 (some centres not stated)	> 10 µM (inactive)	> 10 µM (inactive)	> 10 µM (inactive)	> 10 µM (inactive)	> 10 µM (inactive)	> 10 µM (inactive)	> 10 µM (inactive)	–	> 10 µM (inactive)	> 10 µM (inactive)	> 10 µM (inactive)	> 10 µM (inactive)	> 10 µM (inactive)	> 10 µM (inactive)	> 10 µM (inactive)	> 10 µM (inactive)	> 10 µM (inactive)	> 10 µM (inactive)	> 10 µM (inactive)	> 10 µM (inactive)
